In patent publication US10227357B2, “Compounds and methods for kinase modulation, and indications therefor” (Plexxikon Inc., priority 2012, dated 2019):

Key:
c-kit kinase = molecular target: T1, c-kit kinase (Homo sapiens, UniProt P10721); test: c-Kit biochemical assay, AlphaScreen, 10 μM ATP; settings: c-kit biochemical inhibitory activity; read-out: Biochemical activity (IC50 μM) Kit
T1 construct: The c-kit (or kinase domain thereof) is an active kinase in AlphaScreen; poly-Histidine tag (in-house protein only) (cleaved yes); host or cells: E. coli BL21(DE3)RIL, co-expressed with PTP1B
Summary of the method: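 His-tagged c-Kit expressed in E. coli with co-expressed PTP1B (dephosphorylated), tag removed; 0.1 ng per reaction with biotinylated-peptide substrate in 50 mM HEPES pH 7.2, 5 mM MgCl2, 5 mM MnCl2, 5% DMSO, 10 μM ATP, 1 h at room temperature. Phosphorylation detected by AlphaScreen (streptavidin donor, PY20 acceptor beads); IC50 from 8-point 1:3 dilution series.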

c-kit mutant D816V = molecular target: T2, c-kit mutant D816V (Homo sapiens, UniProt P10721, D816V/DEL694-753); test: c-Kit mutant D816V biochemical assay, AlphaScreen; settings: c-kit D816V biochemical inhibitory activity; read-out: Biochemical activity (IC50 μM) Kit D816V
T2 construct: residues 551-934, kinase insertion domain residues 694-753 deleted; 6x-histidine (N); made in house; host or cells: E. coli Arctic Express (DE3) RIL (Stratagene)
Summary of the method: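 Purified His-tagged c-Kit D816V (E. coli-expressed) assayed in 25 mM HEPES pH 7.2 with Mg/Mn, 5% DMSO and 10 μM ATP, 30 min at room temperature, 8-point 1:3 dilutions. Phosphorylation detected by AlphaScreen with streptavidin donor and PY20 acceptor beads; IC50 from signal versus concentration.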

T1 sequence (P10721 26-976): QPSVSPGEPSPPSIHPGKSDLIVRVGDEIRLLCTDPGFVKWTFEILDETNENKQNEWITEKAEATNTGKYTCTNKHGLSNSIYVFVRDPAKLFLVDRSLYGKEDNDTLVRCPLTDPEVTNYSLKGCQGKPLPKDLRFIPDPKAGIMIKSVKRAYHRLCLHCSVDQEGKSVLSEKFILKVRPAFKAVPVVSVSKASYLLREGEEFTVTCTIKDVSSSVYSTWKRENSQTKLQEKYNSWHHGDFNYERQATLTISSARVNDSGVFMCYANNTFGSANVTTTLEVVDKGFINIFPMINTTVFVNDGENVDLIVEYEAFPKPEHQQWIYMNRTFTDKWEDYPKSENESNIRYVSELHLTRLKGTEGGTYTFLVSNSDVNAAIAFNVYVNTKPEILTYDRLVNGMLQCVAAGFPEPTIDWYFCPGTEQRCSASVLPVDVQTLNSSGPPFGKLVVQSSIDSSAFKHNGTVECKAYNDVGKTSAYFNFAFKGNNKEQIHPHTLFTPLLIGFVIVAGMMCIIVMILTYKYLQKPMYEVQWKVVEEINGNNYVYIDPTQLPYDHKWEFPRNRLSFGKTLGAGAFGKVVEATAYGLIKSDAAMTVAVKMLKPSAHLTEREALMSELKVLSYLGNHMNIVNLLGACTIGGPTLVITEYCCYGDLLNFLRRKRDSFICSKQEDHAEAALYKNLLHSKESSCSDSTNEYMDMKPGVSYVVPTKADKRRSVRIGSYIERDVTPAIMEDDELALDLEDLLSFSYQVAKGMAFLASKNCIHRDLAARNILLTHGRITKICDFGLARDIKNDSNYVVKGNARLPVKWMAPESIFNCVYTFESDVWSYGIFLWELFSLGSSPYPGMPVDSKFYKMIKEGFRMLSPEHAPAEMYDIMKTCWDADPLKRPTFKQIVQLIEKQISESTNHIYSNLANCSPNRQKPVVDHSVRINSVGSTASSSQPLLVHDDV
T2 sequence (P10721 with tags, fused parts or gaps DEL694-753/D816V): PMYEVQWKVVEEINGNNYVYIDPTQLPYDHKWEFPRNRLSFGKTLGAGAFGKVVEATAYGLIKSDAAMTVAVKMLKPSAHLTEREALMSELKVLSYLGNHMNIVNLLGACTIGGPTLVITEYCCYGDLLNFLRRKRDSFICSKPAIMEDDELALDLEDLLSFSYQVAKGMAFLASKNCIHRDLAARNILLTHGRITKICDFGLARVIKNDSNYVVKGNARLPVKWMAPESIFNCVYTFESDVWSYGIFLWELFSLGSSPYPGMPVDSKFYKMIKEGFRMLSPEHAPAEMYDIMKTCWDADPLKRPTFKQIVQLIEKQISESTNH

Row | Structure (SMILES) | IC50 (c-kit kinase) [µM] | IC50 (c-kit mutant D816V) [µM]
1 | C[C@@H]1CN(c2ncnc3[nH]c(-c4ccncc4)cc23)CCN1C(=O)Nc1ccc(F)c(Cl)c1 [P-0062, (2R)-N-(3-chloro-4-fluoro-phenyl)-2-methyl-4-[6-(4-pyridyl)-7H-pyrrolo[2,3-d]pyrimidin-4-yl]piperazine-1-carboxamide] | 1 to 10 | 0.0001 to 1
2 | C[C@@H]1CN(c2ncnc3[nH]c(-c4ccncc4)cc23)CCN1C(=O)Nc1ccc(OC(F)(F)F)cc1 [P-0063, (2R)-2-methyl-4-[6-(4-pyridyl)-7H-pyrrolo[2,3-d]pyrimidin-4-yl]-N-[4-(trifluoromethoxy)phenyl]piperazine-1-carboxamide] | 0.0001 to 1 | 0.0001 to 1
3 | C[C@@H]1CN(c2ncnc3[nH]c(-c4ccncc4)cc23)CCN1C(=O)NCc1ccc(Cl)cc1 [P-0064, (2R)-N-[(4-chlorophenyl)methyl]-2-methyl-4-[6-(4-pyridyl)-7H-pyrrolo[2,3-d]pyrimidin-4-yl]piperazine-1-carboxamide] | 0.0001 to 1 | 0.0001 to 1
4 | C[C@@H]1CN(c2ncnc3[nH]c(-c4ccncc4)cc23)CCN1C(=O)Nc1ccc(Cl)cc1 [P-0065, (2R)-N-(4-chlorophenyl)-2-methyl-4-[6-(4-pyridyl)-7H-pyrrolo[2,3-d]pyrimidin-4-yl]piperazine-1-carboxamide] | 0.0001 to 1 | 0.0001 to 1
5 | C[C@@H]1CN(c2ncnc3[nH]c(-c4ccncc4)cc23)CCN1C(=O)Nc1ccc(N(C)C)cc1 [P-0066, (2R)-N-(4-dimethylaminophenyl)-2-methyl-4-[6-(4-pyridyl)-7H-pyrrolo[2,3-d]pyrimidin-4-yl]piperazine-1-carboxamide] | 1 to 10 | 0.0001 to 1
6 | O=C(Nc1ccc(OC(F)(F)F)cc1)N1CCN(c2ncnc3[nH]c(-c4ccccc4F)cc23)CC1 [P-0067, 4-[6-(2-fluorophenyl)-7H-pyrrolo[2,3-d]pyrimidin-4-yl]-N-[4-(trifluoromethoxy)phenyl]piperazine-1-carboxamide] | 0.0001 to 1 | 1 to 10
7 | CC1CN(c2ncnc3[nH]c(-c4ccncc4)cc23)CCN1C(=O)Nc1ccccc1 (centres unmarked) [P-0068, 2-methyl-N-phenyl-4-[6-(4-pyridyl)-7H-pyrrolo[2,3-d]pyrimidin-4-yl]piperazine-1-carboxamide] | 1 to 10 | 1 to 10
8 | CN(C)c1ccc(NC(=O)N2CCN(c3ncnc4[nH]c(-c5ccc(C#N)cc5)cc34)CC2)cc1 [P-0070, 4-[6-(4-cyanophenyl)-7H-pyrrolo[2,3-d]pyrimidin-4-yl]-N-(4-dimethylaminophenyl)piperazine-1-carboxamide] | 1 to 10 | 1 to 10
9 | C[C@H]1CN(c2ncnc3[nH]c(-c4ccncc4)cc23)CCN1 [P-0071, 4-[(3S)-3-methylpiperazin-1-yl]-6-(4-pyridyl)-7H-pyrrolo[2,3-d]pyrimidine] | 10 to 200 | 1 to 10
10 | C[C@H](NC(=O)N1CCN(c2ncnc3[nH]c(-c4ccc(F)cc4)cc23)CC1)c1cccc(OC(F)F)c1 [P-0072, N-[(1S)-1-[3-(difluoromethoxy)phenyl]ethyl]-4-[6-(4-fluorophenyl)-7H-pyrrolo[2,3-d]pyrimidin-4-yl]piperazine-1-carboxamide] | 1 to 10 | 0.0001 to 1
11 | C[C@@H]1CN(c2ncnc3[nH]c(-c4ccncc4)cc23)CCN1 [P-0074, 4-[(3R)-3-methylpiperazin-1-yl]-6-(4-pyridyl)-7H-pyrrolo[2,3-d]pyrimidine] | 10 to 200 | 10 to 200
12 | C[C@H](NC(=O)N1CCN(c2ncnc3[nH]c(-c4ccc(F)cc4)cc23)CC1)c1cccc(OC(F)(F)F)c1 [P-0075, 4-[6-(4-fluorophenyl)-7H-pyrrolo[2,3-d]pyrimidin-4-yl]-N-[(1S)-1-[3-(trifluoromethoxy)phenyl]lethyl]piperazine-1-carboxamide] | 10 to 200 | 1 to 10
13 | CS(=O)(=O)Nc1ccc(-c2cc3c(N4CCN(C(=O)Nc5ccc(OC(F)(F)F)cc5)CC4)ncnc3[nH]2)cc1 [P-0077, 4-[6-[4-(methanesulfonamido)phenyl]-7H-pyrrolo[2,3-d]pyrimidin-4-yl]-N-[4-(trifluoromethoxy)phenyl]piperazine-1-carboxamide] | 0.0001 to 1 | 0.0001 to 1
14 | NC(=O)c1cccc(-c2cc3c(N4CCN(C(=O)Nc5ccc(OC(F)(F)F)cc5)CC4)ncnc3[nH]2)c1 [P-0078, 4-[6-(3-carbamoylphenyl)-7H-pyrrolo[2,3-d]pyrimidin-4-yl]-N-[4-(trifluoromethoxy)phenyl]piperazine-1-carboxamide] | 0.0001 to 1 | 10 to 200
15 | Cc1ncc(-c2cc3c(N4CCN(C(=O)NCc5ccc(F)cc5)CC4)ncnc3[nH]2)s1 [P-0079, N-[(4-fluorophenyl)methyl]-4-[6-(2-methylthiazol-5-yl)-7H-pyrrolo[2,3-d]pyrimidin-4-yl]piperazine-1-carboxamide] | 0.0001 to 1 | 0.0001 to 1
16 | Cc1ncc(-c2cc3c(N4CCN(C(=O)Nc5ccc(OC(F)(F)F)cc5)CC4)ncnc3[nH]2)s1 [P-0080, 4-[6-(2-methylthiazol-5-yl)-7H-pyrrolo[2,3-d]pyrimidin-4-yl]-N-[4-(trifluoromethoxy)phenyl]piperazine-1-carboxamide] | 0.0001 to 1 | 0.0001 to 1
17 | CNC(=O)c1cccc(-c2cc3c(N4CCN(C(=O)NCc5ccc(F)cc5)CC4)ncnc3[nH]2)c1 [P-0081, N-[(4-fluorophenyl)rnethyl]-4-[6-[3-(methylcarbamoyl)phenyl]-7H-pyrrolo[2,3-d]pyrimidin-4-yl]piperazine-1-carboxamide] | 1 to 10 | 0.0001 to 1
18 | CC(=O)Nc1cccc(-c2cc3c(N4CCN(C(=O)NCc5ccc(F)cc5)CC4)ncnc3[nH]2)c1 [P-0082, 4-[6-(3-acetamidophenyl)-7H-pyrrolo[2,3-d]pyrimidin-4-yl]-N-[(4-fluorophenyl)methyl]piperazine-1-carboxamide] | 1 to 10 | 0.0001 to 1
19 | NS(=O)(=O)c1cccc(-c2cc3c(N4CCN(C(=O)Nc5ccc(OC(F)(F)F)cc5)CC4)ncnc3[nH]2)c1 [P-0083, 4-[6-(3-sulfamoylphenyl)-7H-pyrrolo[2,3-d]pyrimidin-4-yl]-N-[4-(trifluoromethoxy)phenyl]piperazine-1-carboxamide] | 0.0001 to 1 | 0.0001 to 1
20 | CC(=O)Nc1ccc(-c2cc3c(N4CCN(C(=O)Nc5ccc(OC(F)(F)F)cc5)CC4)ncnc3[nH]2)cn1 [P-0084, 4-[6-(6-acetamido-3-pyridyl)-7H-pyrrolo[2,3-d]pyrimidin-4-yl]-N-[4-(trifluoromethoxy)phenyl]piperazine-1-carboxamide] | 1 to 10 | 0.0001 to 1
21 | CN(C)C(=O)c1cccc(-c2cc3c(N4CCN(C(=O)Nc5ccc(OC(F)(F)F)cc5)CC4)ncnc3[nH]2)c1 [P-0085, 4-[6-[3-(dimethylcarbamoyl)phenyl]-7H-pyrrolo[2,3-d]pyrimidin-4-yl]-N-[4-(trifluoromethoxy)phenyl]piperazine-1-carboxamide] | 0.0001 to 1 | 0.0001 to 1
22 | N#Cc1ccc(-c2cc3c(N4CCN(C(=O)Nc5ccc(OC(F)(F)F)cc5)CC4)ncnc3[nH]2)cc1 [P-0086, 4-[6-(4-cyanophenyl)-7H-pyrrolo[2,3-d]pyrimidin-4-yl]-N-[4-(trifluoromethoxy)phenyl]piperazine-1-carboxamide] | 1 to 10 | 0.0001 to 1
23 | COc1ncc(CNC(=O)N2CCN(c3ncnc4[nH]c(-c5ccc(F)cc5)cc34)CC2)cc1F [P-0087, N-[(5-fluoro-6-methoxy-3-pyridyl)methyl]-4-[6-(4-fluorophenyl)-7H-pyrrolo[2,3-d]pyrimidin-4-yl]piperazine-1-carboxamide] | 1 to 10 | 0.0001 to 1
24 | C#Cc1cc2c(N3CCN(C(=O)Nc4ccc(OCC)cc4)CC3)ncnc2[nH]1 [P-0089, N-(4-ethoxyphenyl)-4-(6-ethynyl-7H-pyrrolo[2,3-d]pyrimidin-4-yl)piperazine-1-carboxamide] | 1 to 10 | 10 to 200
25 | Cn1cc(-c2cc3c(N4CCN(C(=O)Nc5ccc(OC(F)F)cc5)CC4)ncnc3[nH]2)cn1 [P-0091, N-[4-(difluoromethoxy)phenyl]-4-[6-(1-methylpyrazol-4-yl)-7H-pyrrolo[2,3-d]pyrimidin-4-yl]piperazine-1-carboxamide] | 0.0001 to 1 | 0.0001 to 1
26 | Cn1cc(-c2cc3c(N4CCN(C(=O)Nc5ccc(OC(F)(F)F)cc5)CC4)ncnc3[nH]2)cn1 [P-0092, 4-[6-(1-methylpyrazol-4-yl)-7H-pyrrolo[2,3-d]pyrimidin-4-yl]-N-[4-(trifluoromethoxy)phenyl]piperazine-1-carboxamide] | 0.0001 to 1 | 0.0001 to 1
27 | COc1cccc([C@H](C)NC(=O)N2CCN(c3ncnc4[nH]c(-c5cnn(C)c5)cc34)CC2)c1 [P-0093, N-[(1S)-1-(3-methoxyphenyl)ethyl]-4-[6-(1-methylpyrazol-4-yl)-7H-pyrrolo[2,3-d]pyrimidin-4-yl]piperazine-1-carboxamide] | 0.0001 to 1 | 0.0001 to 1
28 | C[C@H](NC(=O)N1CCN(c2ncnc3[nH]c(-c4cnn(C)c4)cc23)CC1)c1ccc(F)cc1 [P-0094, N-[(1S)-1-(4-fluorophenyl)ethyl]-4-[6-(1-methylpyrazol-4-yl)-7H-pyrrolo[2,3-d]pyrimidin-4-yl]piperazine-1-carboxamide] | 1 to 10 | 0.0001 to 1
